How the values were obtained:
[1] = target: T1, olfactory receptor OR51E2 (Homo sapiens, UniProt Q9H255); experiment: Live cell imaging of calcium reporter (Tq-Ca-FLITS) organoids; format: cell-based; details: NEUROG3-dTomato TPH1-mClover CaFLITS-Turquoise reporter organoids; FIG. 2F
T1 construct: endogenous in cells; host or cells: human intestinal organoids NEUROG3-dTomato / TPH1-mClover carrying the Tq-Ca-FLITS calcium sensor, differentiated to EECs
T1 sequence (Q9H255 1-320): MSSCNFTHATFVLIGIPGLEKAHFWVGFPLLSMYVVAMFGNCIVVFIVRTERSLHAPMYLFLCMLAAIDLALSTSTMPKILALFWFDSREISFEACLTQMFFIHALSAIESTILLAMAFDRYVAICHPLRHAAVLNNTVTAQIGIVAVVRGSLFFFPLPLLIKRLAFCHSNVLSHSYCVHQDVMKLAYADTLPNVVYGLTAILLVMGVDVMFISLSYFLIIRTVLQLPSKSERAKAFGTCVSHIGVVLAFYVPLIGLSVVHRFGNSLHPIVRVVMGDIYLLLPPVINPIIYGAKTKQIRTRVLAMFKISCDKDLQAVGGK
Description: A red calcium probe (pTorPE-R-GECO1, addgene plasmid #32465) was used as a template to engineer a cyan genetically encoded calcium probe. The cpApple was replaced with a circular permuted mTurquoise. The resulting probe was dubbed Tq-Ca-FLITS (Turquoise Calcium Fluorescence Lifetime Indicator for Truthful Sensing). A triple nuclear localization signal (3×nls) was added to the N-terminus of the calcium probe to simplify analysis. Details of the engineering and characterization will be described elsewhere (Van der Linden et al., in preparation).
PCRs were performed on Tq-Ca-FLITS (Fw […]atgggatcagatccaaaaaagaagag, Rev […]c[…]) as well as H2B-mMaroon (Fw […], Rev […]attaagtttgtgcccc) and the two PCRs were cloned into a lentiviral vector using InPhusion Cloning (Takara), to produce H2B-mMaroon-P2A-Tq-Ca-FLITS, two simultaneously expressed cistrons separated by a de-optimized P2A (Lo et al., 2015).
H2B-mMaroon-P2A-Tq-Ca-FLITS organoids were imaged on a Leica SP8 confocal laser scanning microscope, equipped with Argon laser and White Light Laser, the latter allowing spectral flexibility for optimal visualization of all fluorophores. […]

[2] = target: T2, OR51E2 (Homo sapiens, UniProt Q9H255); experiment: Calcium sensor (Tq-Ca-FLITS) response in TPH1-mClover NEUROG3-dTomato organoid; format: cell-based; details: for calcium flux in EECs (TPH1-negative): colon-derived reporter organoid
T2 construct: endogenous in cells; host or cells: human intestinal organoids NEUROG3-dTomato / TPH1-mClover carrying the Tq-Ca-FLITS calcium sensor, differentiated to EECs
T2 sequence (Q9H255 1-320): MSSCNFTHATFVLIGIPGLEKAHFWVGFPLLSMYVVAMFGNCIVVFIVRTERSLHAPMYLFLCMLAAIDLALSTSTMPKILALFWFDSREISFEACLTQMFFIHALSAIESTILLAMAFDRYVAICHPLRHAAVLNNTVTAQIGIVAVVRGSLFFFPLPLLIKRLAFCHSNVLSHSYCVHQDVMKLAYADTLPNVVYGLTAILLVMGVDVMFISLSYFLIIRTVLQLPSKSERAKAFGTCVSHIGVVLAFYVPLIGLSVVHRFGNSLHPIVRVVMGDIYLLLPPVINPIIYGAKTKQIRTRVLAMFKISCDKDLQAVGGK
From the text: (F) Fluorescent image of a TPH1^mClover NEUROG3^dTomato organoid that is transduced with the turquoise calcium sensor Tq-Ca-FLITS, containing a nuclear localization signal. Five examples of nuclei are highlighted of which the calcium response is followed after treatment with Beta-ionone, the agonist of OR51E2.
For example, in some embodiments, the compound is beta-ionone and the sensor is a calcium sensor. Beta-ionone is an agonist of the olfactory receptor OR51E2. The mouse homologue of OR51E2 had been reported to be expressed in mouse EECs (Fleischer et al., 2015; Jovancevic et al., 2017). However, prior to the invention, it was not known which human EECs OR51E2 is expressed in. Olfactory genes in humans and mice are very different as these genes quickly evolve. Therefore, the homology of these sequences tend to be low, and it is difficult to project expression profiles of mouse olfactory genes on humans. The inventors have found two olfactory receptors that are abundantly expressed in human EECs, OR51E1 and OR51E2. […] This provided proof-of-concept that sensors combined with hormone reporters from EEC-TAG can aid the study of functional signalling responses in human EEC subtypes. Thus, calcium reporters can be combined as a measure of hormone activation with the knowledge of the expression levels of targets such as olfactory receptors in subpopulations of EECs. Thus, the use of a reporter organoid in conjunction with a calcium reporter allows for screening for activators of targets such as cell surface receptors, e.g. olfactory receptors, and such methods are provided herein. In some embodiments, the calcium assay is conducted in an intestinal organoid which is not itself a reporter organoid and a reporter organoid is used to validate which EEC subtype the calcium is being activated in and so which hormones are being activated. […] This can be extrapolated to which EEC subtype hormone secretion is being activated in.

[3] = target: T2, OR51E2; details: HEK cells after overexpression of OR51E2 (Pietraszewska-Bogiel et al., 2019); cited from earlier work
[4] = system: MLK-7K; details: target MLK-7K; cited from earlier work
[5] = system: enteroendocrine cell differentiated organoids; experiment: Hormone expression in EEC differentiated organoids treated with Midkine; format: cell-based, human

CC(=O)/C=C/C1=C(C)CCCC1(C)C [Beta-ionone]
calcium reporter response in EECs [1]: calcium sparking in EECs that were TPH1-negative | calcium flux in non-EEC [2]: does not show calcium increases | calcium flux in EECs (TPH1-negative) [2]: increases in calcium flux | calcium flux in EECs (TPH1-negative) ([2]; listed as beta-ionone): calcium sparking | calcium response [3]: elicit a calcium response

c1ccc(-c2n[nH]cc2-c2ccnc3ccccc23)nc1 [LY-36494, 4-[3-(2-Pyridinyl)-1H-pyrazol-4-yl]-quinoline]
IC50 [4]: 1400 nM

B1: Midkine: heparin-binding growth factor, cytokine; sequence SEQ ID NO:69 (protein, listed as Homo sapiens)
chain: VAKKKDKVKKGGPGSECAEWAWGPCTPSSKDCGVGFREGTCGAQTQRIRCRVPCNWKKEFGADCKYKFENWGACDGGTGTKVRQGTLKKARYNAQCQETIRVTKPCTPKTKAKAKAKKGKGKD
expression of EEC hormones [5]: reduces the expression of all hormones

Source: patent US20240076624A1, “Methods and Tools for Studying Enteroendocrine Cells” (Koninklijke Nederlandse Akademie Van Wetenschappen, priority 2020, published 2024)
